# Patent publication US9765067B2, “Thiophen-2-yl-pyridin-2-yl-1H-pyrazole-4-carboxylic acid derivatives and the use thereof as soluble guanylate cyclase activators” (Novartis AG, priority 2014, dated 2017)
# Target: T1, soluble guanylate cyclase (human GUCYA3/GUCYB3) overexpressed in CHO cells (Homo sapiens, UniProt Q02108+Q02153)
# T1 construct: expressed in transfected cells
# T1 sequence (Q02108 1-690 partner): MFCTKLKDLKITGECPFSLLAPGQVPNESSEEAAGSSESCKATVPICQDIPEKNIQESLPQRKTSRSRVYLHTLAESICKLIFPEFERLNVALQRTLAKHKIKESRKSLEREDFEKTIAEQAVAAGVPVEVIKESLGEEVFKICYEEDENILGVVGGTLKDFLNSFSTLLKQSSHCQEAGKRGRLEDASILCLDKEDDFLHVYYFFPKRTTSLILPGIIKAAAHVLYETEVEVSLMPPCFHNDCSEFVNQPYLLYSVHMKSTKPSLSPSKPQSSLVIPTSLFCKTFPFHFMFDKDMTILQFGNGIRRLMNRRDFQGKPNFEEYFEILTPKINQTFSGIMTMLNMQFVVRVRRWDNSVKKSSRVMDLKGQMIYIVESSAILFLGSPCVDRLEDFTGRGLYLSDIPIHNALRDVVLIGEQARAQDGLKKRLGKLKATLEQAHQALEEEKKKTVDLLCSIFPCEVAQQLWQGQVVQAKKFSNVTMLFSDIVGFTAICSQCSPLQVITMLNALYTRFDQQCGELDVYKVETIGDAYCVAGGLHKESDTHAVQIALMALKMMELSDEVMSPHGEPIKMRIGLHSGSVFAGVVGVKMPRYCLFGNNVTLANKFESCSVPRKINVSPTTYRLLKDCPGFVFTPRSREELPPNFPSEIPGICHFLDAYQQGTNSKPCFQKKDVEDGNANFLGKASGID
# T1 sequence (Q02153 1-619): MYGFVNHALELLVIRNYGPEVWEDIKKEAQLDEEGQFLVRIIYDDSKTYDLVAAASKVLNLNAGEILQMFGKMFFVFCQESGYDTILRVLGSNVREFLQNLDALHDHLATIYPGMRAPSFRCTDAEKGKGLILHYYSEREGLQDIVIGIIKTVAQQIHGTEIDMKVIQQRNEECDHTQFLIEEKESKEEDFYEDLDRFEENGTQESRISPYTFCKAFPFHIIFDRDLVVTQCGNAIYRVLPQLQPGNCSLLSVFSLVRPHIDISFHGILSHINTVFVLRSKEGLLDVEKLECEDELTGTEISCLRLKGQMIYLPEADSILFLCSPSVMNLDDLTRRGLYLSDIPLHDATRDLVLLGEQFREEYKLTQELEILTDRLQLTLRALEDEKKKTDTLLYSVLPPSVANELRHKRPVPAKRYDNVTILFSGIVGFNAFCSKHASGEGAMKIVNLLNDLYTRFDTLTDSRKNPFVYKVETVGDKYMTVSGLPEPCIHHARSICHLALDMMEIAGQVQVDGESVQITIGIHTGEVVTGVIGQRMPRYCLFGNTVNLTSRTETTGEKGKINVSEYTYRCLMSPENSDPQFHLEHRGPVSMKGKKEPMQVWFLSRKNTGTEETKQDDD
# Assay: CHO cellular assay (cGMP production, HTRF)
# Type: cell-based
# Details: CHO K1 clone 8E10 overexpressing human sGC, Cisbio HTRF, 1 h room temperature, 1 mM IBMX, 20 uM ODQ, minimum quantification limit 0.5 nM
# In short: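 Stable CHO K1 clone expressing human GUCYA3/GUCYB3. Compounds applied 1 h at room temperature in HBSS, 0.1% BSA, 1 mM IBMX, 20 uM ODQ, 0.5% DMSO. cGMP measured by HTRF and interpolated from a standard curve; EC50 from 4-parameter sigmoidal fit.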
row,SMILES,EC50
1,"Cc1cc(C2CCN(C(=O)C3CNC3)CC2)ccc1OCc1ccsc1-c1cccc(-n2ncc(C(=O)O)c2C(F)(F)F)n1 [Example 43, 1-(6-(3-((4-(1-(Azetidine-3-carbonyl)piperidin-4-yl)-2-methylphenoxy)methyl)thiophen-2-yl)pyridin-2-yl)-5-(trifluoromethyl)-1H-pyrazole-4-carboxylic acid]",887 nM
2,"CCc1c(C(=O)O)cnn1-c1cccc(-c2sc(C)cc2CCc2ccc(C3CCN(C(=O)C4CC4)CC3)cc2C)n1 [Example 45, 1-(6-(3-(4-(1-(Cyclopropanecarbonyl)piperidin-4-yl)-2-methylphenethyl)-5-methylthiophen-2-yl)pyridin-2-yl)-5-ethyl-1H-pyrazole-4-carboxylic acid]",≤ 0.5 nM
3,"Cc1cc(CCc2ccc(C3CCN(C(=O)OC(C)(C)C)CC3)cc2C)c(-c2cccc(-n3ncc(C(=O)O)c3C(F)(F)F)n2)s1 [Example 46, 1-(6-(3-(4-(1-(tert-Butoxycarbonyl)piperidin-4-yl)-2-methylphenethyl)-5-methylthiophen-2-yl)pyridin-2-yl)-5-(trifluoromethyl)-1H-pyrazole-4-carboxylic acid]",3 nM
